This test addresses T1, PDE1A (Homo sapiens, UniProt P54750).
T1 construct: purchased SignalChem
Description: In vitro detection of phosphodiesterase (PDE): PDE1A enzyme activity by fluorescence polarization immunoassay. Type of test: biochemical. The note with it: human-derived enzyme, cAMP or cGMP substrate; read-out: IC50s for PDE1. As to the method: Test 1: In Vitro Detection of Phosphodiesterase (PDE)
the enzyme activity of PDE1A was determined by detecting the production of AMP/GMP by fluorescence polarization immunoassay, wherein AlexaFluor 633 labeled AMP/GMP was used to replace AMP/GMP to bind with the antibody.
Reaction buffer: 10 mM Tris-HCl, pH 7.5, 5 mM magnesium chloride, 0.01% Brij 35, 1 mM DTT and 1% DMSO;
Enzyme substrate: […] cAMP or cGMP (Ca^2+-calmodulin acts as a cofactor of PDE1A)
Detection reagent: Transcreener® AMP2/GMP2 antibody; AMP2/GMP2 AlexaFluor 633 tracer.
Experimental Procedure and Method:
1. Human-derived enzyme (commercially available from SignalChem) to be tested and substrate were diluted with freshly prepared reaction buffer;
2. The enzyme solution (with a concentration of 3 pM) was added to the holes of the microplates;
3. A series of solutions of the compounds in 100% DMSO (with the desired concentrations) were added to the holes containing the enzyme solution by Echo550, and then the microplates were incubated for 10 minutes at room temperature;
4. The substrate solution was added to the holes containing the enzyme and compounds to start the reaction;
5. The microplates were incubated for 1 hour under room temperature and vibration;
6. The detection mixture (tracer and antibody in stop buffer) was added to stop the enzyme reaction, and the microplates were incubated for 90 minutes under vibration;
7. The equipment EnVision (PerkinElmer), Cy5 FP Ex FP 620, Em S-pol 688/P-pol 688, FP mirror D658fp/D688 was used to detect the reaction mixture, and Ex/Em 620/688 was used to detect the fluorescence polarization.
In the Excel table, the enzyme activity corresponding to the FP signal was found on the AMP/GMP standard curve by reference to the DMSO negative control, and then was converted to product concentration (nM). GraphPad Prism was used to analyze and calculate the IC50 values.
On to `CC[C@@]12C=C(c3nc(C)c(C(=O)N(C)C)o3)n3c4c(c5ccccc53)CCN(CCC1)[C@H]42` [Example 65, 2-((4^1S,13aS)-13a-ethyl-2,3,4^1,5,6,13a-hexahydro-1H-indolo[3,2,1-de]pyrido[3,2,1-ij][1,5]naphthyridin-12-yl)-N,N,4-trimethyloxazole-5-carboxamide], for which the IC50 is no more than 1 µM. The value for `CC[C@@]12C=C(c3cn4ccc(C(F)(F)F)cc4n3)n3c4c(c5ccccc53)CCN(CCC1)[C@H]42` [Example 44, (4^1S,13aS)-13a-ethyl-12(7-(trifluoromethyl)imidazo[1,2-a]pyridin-2-yl)-2,3,4^1,5,6,13a-hexahydro-1H-indolo[3,2,1-de]pyrido[3,2,1-ij][1,5]naphthyridine] was 20 to 100 µM; that for `CC[C@@]12C=C(c3nc4c(o3)CCOC4)n3c4c(c5ccccc53)CCN(CCC1)[C@H]42` [Example 66, 2-((4^1S,13aS)-13a-ethyl-2,3,4^1,5,6,13a-hexahydro-1H-indolo[3,2,1-de]pyrido[3,2,1-ij][1,5]naphthyridin-12-yl)-6,7-dihydro-4H-pyrano[3,4-d]oxazole] was no more than 1 µM. The value for `CC[C@@]12C=C(c3nc(C)c(C)o3)n3c4c(c5cc(S(=O)(=O)N(C)C)ccc53)CCN(CCC1)[C@H]42` [Example 71, (4^1S,13aS)-12-(4,5-dimethyloxazol-2-yl)-13a-ethyl-N,N-dimethyl-2,3,4^1,5,6,13a-hexahydro-1H-indolo[3,2,1-de]pyrido[3,2,1-ij][1,5]naphthyridin-8-sulfonamide] was 1 to 20 µM; that for `CC[C@@]12C=C(C3=N[C@@H](C)CO3)n3c4c(c5ccccc53)CCN(CCC1)[C@H]42` [Example 38, (S)-2-((4^1S,13aS)-13a-ethyl-2,3,4^1,5,6,13a-hexahydro-1H-indolo[3,2,1-de]pyrido[3,2,1-ij][1,5]naphthyridin-12-yl)-4-methyl-4,5-dihydrooxazole] was 20 to 100 µM; that for `CC[C@@]12C=C(c3nc(C)no3)n3c4c(c5c(S(=O)(=O)NC)cccc53)CCN(CCC1)[C@H]42` [Example 82, (4^1S,13aS)-13a-ethyl-N-methyl-12-(3-methyl-1,2,4-oxadiazol-5-yl)-2,3,4^1,5,6,13a-hexahydro-1H-indolo[3,2,1-de]pyrido[3,2,1-ij][1,5]naphthyridin-7-sulfonamide] was 20 to 100 µM. The value for `CC[C@@]12C=C(c3ncc[nH]3)n3c4c(c5ccccc53)CCN(CCC1)[C@H]42` [Example 3, (4^1S,13aS)-13a-ethyl-12-(1H-imidazol-2-yl)-2,3,4^1,5,6,13a-hexahydro-1H-indolo[3,2,1-de]pyrido[3,2,1-ij][1,5]naphthyridine] was greater than 100 µM; that for `CC[C@@]12C=C(c3cnc(C)c(C)n3)n3c4c(c5ccccc53)CCN(CCC1)[C@H]42` [Example 14, (4^1S,13aS)-12-(5,6-dimethylpyrazin-2-yl)-13a-ethyl-2,3,4^1,5,6,13a-hexahydro-1H-indolo[3,2,1-de]pyrido[3,2,1-ij][1,5]naphthyridine] was 1 to 20 µM; that for `CC[C@@]12C=C(c3nc(C(C)(C)O)no3)n3c4c(c5ccccc53)CCN(CCC1)[C@H]42` [Example 37, 2-(5-((4^1S,13aS)-13a-ethyl-2,3,4^1,5,6,13a-hexahydro-1H-indolo[3,2,1-de]pyrido[3,2,1-ij][1,5]naphthyridin-12-yl)-1,2,4-oxadiazol-3-yl)-propan-2-ol] was 1 to 20 µM. As for `CC[C@@]12C=C(c3nc(C)c(C)o3)n3c4c(c5c(S(=O)(=O)NC)cccc53)CCN(CCC1)[C@H]42` [Example 73, (4^1S,13aS)-12-(4,5-dimethyloxazol-2-yl)-13a-ethyl-N-methyl-2,3,4^1,5,6,13a-hexahydro-1H-indolo[3,2,1-de]pyrido[3,2,1-ij][1,5]naphthyridin-7-sulfonamide], the IC50 is 1 to 20 µM. With `CC[C@@]12C=C(c3csc(N)n3)n3c4c(c5ccccc53)CCN(CCC1)[C@H]42` [Example 43, 4-((4^1S,13aS)-13a-ethyl-2,3,4^1,5,6,13a-hexahydro-1H-indolo[3,2,1-de]pyrido[3,2,1-ij][1,5]naphthyridin-12-yl)-thiazole-2-amine], the IC50 lay within 20 to 100 µM.

Consider `CC[C@@]12C=C(c3nc(C)c(C(=O)NC)o3)n3c4c(c5ccccc53)CCN(CCC1)[C@H]42` [Example 64, 2-((4^1S,13aS)-13a-ethyl-2,3,4^1,5,6,13a-hexahydro-1H-indolo[3,2,1-de]pyrido[3,2,1-ij][1,5]naphthyridin-12-yl)-N,4-dimethyloxazole-5-carboxamide], for which the IC50 is no more than 1 µM. The value for `CC[C@@]12C=C(c3nc(C(F)(F)F)no3)n3c4c(c5ccccc53)CCN(CCC1)[C@H]42` [Example 22, 5-((4^1S,13aS)-13a-ethyl-2,3,4^1,5,6,13a-hexahydro-1H-indolo[3,2,1-de]pyrido[3,2,1-ij][1,5]naphthyridin-12-yl)-3-trifluoromethyl-1,2,4-oxadiazole] was 20 to 100 µM. Regarding `CC[C@@]12C=C(c3nc(C)no3)n3c4c(c5ccc(S(=O)(=O)NC)cc53)CCN(CCC1)[C@H]42` [Example 76, (4^1S,13aS)-13a-ethyl-N-methyl-12-(3-methyl-1,2,4-oxadiazol-5-yl)-2,3,4^1,5,6,13a-hexahydro-1H-indolo[3,2,1-de]pyrido[3,2,1-ij][1,5]naphthyridin-9-sulfonamide], the IC50 lay within 1 to 20 µM. As to “(4^1S,13aS)-13a-ethyl-N-(3-methoxylpropyl)-12-(3-methyl-1,2,4-oxadiazol-5-yl)-2,3,4^1,5,6,13a-hexahydro-1H-indolo[3,2,1-de]pyrido[3,2,1-ij][1,5]naphthyridin-9-sulfonamide [Example 78]”, the IC50 lay within 20 to 100 µM. Consider `CC[C@@]12C=C(c3noc(C)n3)n3c4c(c5ccccc53)CCN(CCC1)[C@H]42` [Example 20, 3-((4^1S,13aS)-13a-ethyl-2,3,4^1,5,6,13a-hexahydro-1H-indolo[3,2,1-de]pyrido[3,2,1-ij][1,5]naphthyridin-12-yl)-5-methyl-1,2,4-oxadiazole], for which the IC50 is 1 to 20 µM. The value for `CC[C@@]12C=C(c3nc(C)c(N4CCOCC4)o3)n3c4c(c5ccccc53)CCN(CCC1)[C@H]42` [Example 67, 4-(2-((4^1S,13aS)-13a-ethyl-2,3,4^1,5,6,13a-hexahydro-1H-indolo[3,2,1-de]pyrido[3,2,1-ij][1,5]naphthyridin-12-yl)-4-methyloxazol-5-yl)morpholine] was no more than 1 µM; that for `CC[C@@]12C=C(c3n[nH]c(=O)o3)n3c4c(c5ccccc53)CCN(CCC1)[C@H]42` [Example 16, 5-((4^1S,13aS)-13a-ethyl-2,3,4^1,5,6,13a-hexahydro-1H-indolo[3,2,1-de]pyrido[3,2,1-ij][1,5]naphthyridin-12-yl)-1,3,4-oxadiazol-2(3H)-one] was 1 to 20 µM; that for `CC[C@@]12C=C(c3cn4ccccc4n3)n3c4c(c5ccccc53)CCN(CCC1)[C@H]42` [Example 42, (4^1S,13aS)-13a-ethyl-12-(imidazo[1,2-a]pyridin-2-yl)-2,3,4^1,5,6,13a-hexahydro-1H-indolo[3,2,1-de]pyrido[3,2,1-ij][1,5]naphthyridine] was 1 to 20 µM. To `CC[C@@]12C=C(c3nc(C)co3)n3c4c(c5ccccc53)CCN(CCC1)[C@H]42` [Example 50, 2-((4^1S,13aS)-13a-ethyl-2,3,4^1,5,6,13a-hexahydro-1H-indolo[3,2,1-de]pyrido[3,2,1-ij][1,5]naphthyridin-12-yl)-4-methyloxazole] belongs 1 to 20 µM.
